What was measured:
[1] = Angle of repose (AoR/AOR) of powder; assay type: physicochemical
From the text: Both of these ibuprofen powders could not be fluidized sufficiently prior to coating, yet both of the coated ibuprofen particles were well fluidized after dry coating.
The operating conditions for coating step 2 may be established by a skilled person giving consideration, for example, to particle agglomeration and providing reduced angle of repose (AOR) values for the coated API powder. The degree of particle agglomeration may be determined by measuring the size of the coated particles in SEM images. The degree of agglomeration may also be estimated using the dispersion pressure titration in the Rodos/Helos system (Rodos and Helos, Sympatec, Lawrenceville, N.J., USA). A discussion of the pressure titration may be found in Han, X., Ghoroi, C., To, D., Chen, Y., Davë, R., “Simultaneous micronization and surface modification for improvement of flow and dissolution of drug particles (2011).” International Journal of Pharmaceutics, vol. 415, pp. 185-195, which is incorporated in its entirety by reference. The AOR may be measured using the procedure of ASTM D6393-99, “Bulk Solids Characterization by CARR Indices.” For example, when the Comil is used, the impeller speed may be optimized to reduce the agglomeration (FIG. 3) as higher impeller speed […] agglomerate size for the silica coated API powders.
M5P hydrophilic silica has a particle size of 20 nm and is manufactured by Cabot

[2] = Flow function coefficient (FFC), shear cell of FT 4 tester; assay type: physicochemical
[3] = finer ibuprofen powder, median size about 41 micron

AoR [1, 3]: about 58 degrees | AOR ([1]; flow properties of ibuprofen before and after dry coating with silica): 55 ° | AoR ([1]; ibuprofen median particle size about 74 micron, Hosokawa Powder Tester, ASTM D6393-08): about 55 degrees | FFC [2, 3]: about 2.8 | FFC ([2]; ibuprofen median particle size about 74 micron, pre-consolidation of 3 kPa): about 5
SMILES: CC(C)Cc1ccc(C(C)C(=O)O)cc1 (centres unmarked) [ibuprofen]
